Reference: the NIST ThermoML archive (doi:10.1021/je8001305)

Test: xn = mol fraction of the nth substance listed
Details: Liquid, Vibrating tube method

CC(C)O [propan-2-ol] + O
Details	mass density [kg/m3]
325.1 K, 4598.7 kPa, x1 = 0.2483	877.08
325.1 K, 5089.3 kPa, x1 = 0.2483	877.36
325.1 K, 5564.2 kPa, x1 = 0.2483	877.68
325.1 K, 5954.2 kPa, x1 = 0.2483	877.93
325.1 K, 6394.3 kPa, x1 = 0.2483	878.21
325.1 K, 6808.5 kPa, x1 = 0.2483	878.48
325.1 K, 7288 kPa, x1 = 0.2483	878.8
325.1 K, 7782.7 kPa, x1 = 0.2483	879.08
325.1 K, 8079.1 kPa, x1 = 0.2483	879.34
325.1 K, 8438.9 kPa, x1 = 0.2483	879.63
325.1 K, 8828.5 kPa, x1 = 0.2483	879.87
325.1 K, 9358.9 kPa, x1 = 0.2483	880.18
325.13 K, 29.2 kPa, x1 = 0.7258	782.68
325.13 K, 83 kPa, x1 = 0.7258	782.69
325.13 K, 268.1 kPa, x1 = 0.7258	782.93
325.13 K, 528.3 kPa, x1 = 0.7258	783.18
325.13 K, 873.7 kPa, x1 = 0.7258	783.5
325.13 K, 1298.6 kPa, x1 = 0.7258	783.92
325.13 K, 1709.2 kPa, x1 = 0.7258	784.33
325.13 K, 2200.7 kPa, x1 = 0.7258	784.79
325.13 K, 2652.1 kPa, x1 = 0.7258	785.22
325.13 K, 3101.7 kPa, x1 = 0.7258	785.67
325.13 K, 3550.6 kPa, x1 = 0.7258	786.11
325.13 K, 4068.3 kPa, x1 = 0.7258	786.61
325.13 K, 4579.4 kPa, x1 = 0.7258	787.07
325.13 K, 5021.7 kPa, x1 = 0.7258	787.49
325.13 K, 5496.1 kPa, x1 = 0.7258	787.93
325.13 K, 5972.3 kPa, x1 = 0.7258	788.38
325.13 K, 6450.8 kPa, x1 = 0.7258	788.82
325.13 K, 6903 kPa, x1 = 0.7258	789.24
325.13 K, 7392 kPa, x1 = 0.7258	789.7
325.13 K, 7861.1 kPa, x1 = 0.7258	790.11
325.13 K, 8322.8 kPa, x1 = 0.7258	790.52
325.13 K, 8813.9 kPa, x1 = 0.7258	790.98
325.13 K, 9287.4 kPa, x1 = 0.7258	791.41
325.13 K, 9829.7 kPa, x1 = 0.7258	791.93
350.15 K, 88 kPa, x1 = 0.4939	789.82
350.15 K, 161.7 kPa, x1 = 0.4939	789.8
350.15 K, 387.8 kPa, x1 = 0.4939	790.1
350.15 K, 695.2 kPa, x1 = 0.4939	790.45
350.15 K, 1020.8 kPa, x1 = 0.4939	790.78
350.15 K, 1400.1 kPa, x1 = 0.4939	791.25
350.15 K, 1795.8 kPa, x1 = 0.4939	791.61
350.15 K, 2147.1 kPa, x1 = 0.4939	791.96
350.15 K, 2497.9 kPa, x1 = 0.4939	792.31
350.15 K, 2892.7 kPa, x1 = 0.4939	792.74
350.15 K, 3277.9 kPa, x1 = 0.4939	793.12
350.15 K, 3611.5 kPa, x1 = 0.4939	793.5
350.15 K, 4087.3 kPa, x1 = 0.4939	794.01
350.15 K, 4606.7 kPa, x1 = 0.4939	794.49
350.15 K, 4955.2 kPa, x1 = 0.4939	794.83
350.15 K, 5376 kPa, x1 = 0.4939	795.26
350.15 K, 5837.6 kPa, x1 = 0.4939	795.69
350.15 K, 6296.4 kPa, x1 = 0.4939	796.18
350.15 K, 6886.6 kPa, x1 = 0.4939	796.77
350.15 K, 7400.8 kPa, x1 = 0.4939	797.28
350.15 K, 7935.6 kPa, x1 = 0.4939	797.73
350.15 K, 8400.3 kPa, x1 = 0.4939	798.24
350.15 K, 9000.6 kPa, x1 = 0.4939	798.68
350.15 K, 9521.2 kPa, x1 = 0.4939	799.18
350.18 K, 84.4 kPa, x1 = 0.2483	850.19
350.18 K, 220 kPa, x1 = 0.2483	850.33
350.18 K, 511 kPa, x1 = 0.2483	850.54
350.18 K, 938.8 kPa, x1 = 0.2483	850.91
350.18 K, 1369.7 kPa, x1 = 0.2483	851.29
350.18 K, 2066.9 kPa, x1 = 0.2483	851.75
350.18 K, 2381 kPa, x1 = 0.2483	852.09
350.18 K, 2718.1 kPa, x1 = 0.2483	852.39
350.18 K, 3107.7 kPa, x1 = 0.2483	852.73
350.18 K, 3464.8 kPa, x1 = 0.2483	853.04
350.18 K, 3957.6 kPa, x1 = 0.2483	853.37
350.18 K, 4346 kPa, x1 = 0.2483	853.71
350.18 K, 4781.1 kPa, x1 = 0.2483	854.06
350.18 K, 5267.8 kPa, x1 = 0.2483	854.49
350.18 K, 5743.8 kPa, x1 = 0.2483	854.83
350.18 K, 6196.4 kPa, x1 = 0.2483	855.2
350.18 K, 6734.2 kPa, x1 = 0.2483	855.63
350.18 K, 7374.9 kPa, x1 = 0.2483	856.07
350.18 K, 7999 kPa, x1 = 0.2483	856.54
350.18 K, 8630.3 kPa, x1 = 0.2483	857.02
350.18 K, 9298.3 kPa, x1 = 0.2483	857.54
351.14 K, 93.2 kPa, x1 = 0.7258	756.9
351.14 K, 241.5 kPa, x1 = 0.7258	757.15
351.14 K, 444.5 kPa, x1 = 0.7258	757.34
351.14 K, 822.4 kPa, x1 = 0.7258	757.8
351.14 K, 1271.6 kPa, x1 = 0.7258	758.33
351.14 K, 1673.9 kPa, x1 = 0.7258	758.75
351.14 K, 2070.5 kPa, x1 = 0.7258	759.26
351.14 K, 2461.1 kPa, x1 = 0.7258	759.66
351.14 K, 2863.4 kPa, x1 = 0.7258	760.12
351.14 K, 3280.9 kPa, x1 = 0.7258	760.61
351.14 K, 4252.5 kPa, x1 = 0.7258	761.65
351.14 K, 4626.4 kPa, x1 = 0.7258	762.11
351.14 K, 5075.9 kPa, x1 = 0.7258	762.61
351.14 K, 5558.5 kPa, x1 = 0.7258	763.09
351.14 K, 5976.2 kPa, x1 = 0.7258	763.59
351.14 K, 6439.8 kPa, x1 = 0.7258	764.08
351.14 K, 6882.2 kPa, x1 = 0.7258	764.57
351.14 K, 7348.6 kPa, x1 = 0.7258	765.1
351.14 K, 7809.3 kPa, x1 = 0.7258	765.6
351.14 K, 8254 kPa, x1 = 0.7258	766.09
351.14 K, 8720.2 kPa, x1 = 0.7258	766.63
351.14 K, 9221.3 kPa, x1 = 0.7258	767.15
351.14 K, 9714.8 kPa, x1 = 0.7258	767.73
351.14 K, 10240 kPa, x1 = 0.7258	768.31
